Like-named read-outs stand apart in the source and are kept apart here.
Columns and labels:
Human Liver-on-Chip [1] = format: in vitro ADME
Source text: FIG. 83 provides a graph measuring a low clearance compound Antipyrine in a Clearance assay in microfluidic “Human Liver-on-Chip” under continuous flow.
FIG. 84 provides a graph measuring low clearance compound Antipyrine in a Clearance assay in microfluidic “Human Liver-on-Chip” under non-dynamic conditions.
Each drug molecule has a limited time to interact with hepatocytes, i.e. an interaction time. Under conditions of flow, the interaction time is reduced. However the interaction time can be increased by either using non-dynamic conditions (absence of flow) or by reticulating the media containing the drug. The present invention contemplates both embodiments for increasing interaction time, and in particular for low clearance compounds. […] See, FIGS. 83-84.
Under dynamic conditions: Antipyrine medium removed from the Liver-on-Chip at 5 sample points over 10 hours of incubation, then again after 25 hours of incubation, was tested for an amount (%) of remaining compound. After 25 hours, around 90% of the compound remained in the media. See, FIG. 83.
Under non-dynamic conditions: 50 μl (total) of Antipyrine medium in the Liver-on-Chip was tested for an amount (%) of remaining compound, after incubation for 24 hours and 48 hours. At 48 hours, around 100% of the compound appeared to be present in the media. […]

human NTCP (SLC10A1) = target: T1, human NTCP (SLC10A1) (Homo sapiens, UniProt Q14973); conditions: human NTCP (SLC10A1) expressed in HEK293 cells; read-out: IC(50), inhibition of taurocholate uptake; cited from earlier work
T1 sequence (Q14973 1-349): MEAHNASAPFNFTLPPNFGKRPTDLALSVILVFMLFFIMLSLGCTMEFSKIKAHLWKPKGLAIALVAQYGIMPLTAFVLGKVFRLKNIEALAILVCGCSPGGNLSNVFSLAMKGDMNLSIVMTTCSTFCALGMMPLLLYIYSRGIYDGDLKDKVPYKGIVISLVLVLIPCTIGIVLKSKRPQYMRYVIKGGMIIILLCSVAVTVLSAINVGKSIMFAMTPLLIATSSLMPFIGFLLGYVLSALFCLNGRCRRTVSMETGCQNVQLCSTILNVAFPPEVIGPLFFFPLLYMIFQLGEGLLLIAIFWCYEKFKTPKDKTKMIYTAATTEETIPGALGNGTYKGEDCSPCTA

Human Liver-on-Chip [2] = format: cell-based
Experimental: (§1) FIGS. 76A-76C provides graphs measuring Bosentan Toxicity as Albumin Secretion in three different species of microfluidic chips: FIG. 76A “RAT Liver-on-Chip”; FIG. 76B “DOG Liver-on-Chip”; increasing concentrations from 1.2-100 μM and FIG. 76C “Human Liver-on-Chip” increasing concentrations from 0.4-100 μM. Samples were removed from the microfluidic chip with a sample from a plate sandwich culture shown for comparison.
(§2) Thus, for step 4, one exemplary toxicity mechanism is a loss of albumin secretion.
(§3) One contemplated difference between unsuccessful modeling experiments i.e. measuring cell death by LDH release, as in FIG. 75 vs. successful modeling measuring reduced cell function by a reduction in albumin secretion, as in FIG. 76, was potential cross-talk (e.g. exchange of secretions or physical cell-cell interactions) between Hepatocyte and liver sinusoidal endothelial cells (LSEC) after treatment with Bosentan. Therefore, a Human Liver-on-Chip was designed and seeded with areas of LSEC only and hepatocytes only, allowing a co-culture area in between, see, micrograph in FIG. 77. […] Therefore, co-culturing with LSEC increases hepatocytes sensitivity to Bosentan in these microfluidic HUMAN Liver-on-Chips.

[3] = test system: Na(+)-dependent taurocholate uptake; conditions: rat suspended hepatocytes; read-out: IC(50), inhibition of Na(+)-dependent taurocholate uptake; cited from earlier work
DOG Liver-on-Chip [4] = format: cell-based; conditions: 7 days
Experimental: (§4) FIGS. 75A-75C provides graphs measuring Bosentan Toxicity as a percentage of LDH Leakage in three different species of microfluidic chips: FIG. 75A “RAT Liver-on-Chip” (7 days of treatment); FIG. 75B microfluidic “DOG Liver-on-Chip” (7 days of treatment); and FIG. 75C microfluidic “Human Liver-on-Chip” (3 days of treatment) increasing concentrations from 1.2 (1.3 for human)-100 μM. Samples were removed from the hepatocyte channel and the LSEC channel of the microfluidic chip with a sample from a plate sandwich culture shown for comparison.
(§5) An exemplary tool compound was chosen for a pilot study, as an exemplary step 1: Bosentan (Tracleer), see, FIG. 74 for an exemplary chemical structure. […] Step 2: RAT and DOG “Liver-on-Chip” models were chosen for comparison to a HUMAN “Liver-on-Chip”. Step 3: A concentration range of 1.2 to 100 μM Bosentan was selected. Step 4, a first type of mechanism, e.g. exemplary LDH leakage was chosen for analysis of toxicity. FIG. 75 provides graphs measuring Bosentan Toxicity as a percentage of LDH Leakage in three different species of microfluidic chips: A) “RAT Liver-on-Chip” (7 days of treatment); B) microfluidic “DOG Liver-on-Chip” (7 days of treatment); and C) microfluidic “Human Liver-on-Chip” (3 days of treatment) increasing concentrations from 1.2 (1.3 for human)-100 μM. […]

DOG Liver-on-Chip [5] = experiment: Bosentan toxicity as albumin secretion, DOG Liver-on-Chip; format: cell-based
Experimental: as §1, §2

RAT Liver-on-Chip = experiment: Bosentan toxicity as LDH leakage, RAT Liver-on-Chip; format: cell-based; conditions: 1.2-100 μM
Experimental: as §4, §5

[6] = reported in literature; cited from earlier work
[7] = test system: hepatocytes with liver sinusoidal endothelial cells (LSEC); experiment: Modified Human Liver-on-Chip with LSEC only, hepatocytes only and co-culture areas, visual observation; format: cell-based; conditions: Bosentan at 11 μM, 3 days of treatment
Source text: as §3

Human Liver-on-Chip [8] = format: cell-based; conditions: 3 days
Experimental: as §4, §5

[9] = target: T2, rat Na(+)-dependent taurocholate co-transporting polypeptide (Ntcp/Slc10a1) (Rattus norvegicus, UniProt P26435); conditions: rat Ntcp/Slc10a1 expressed in HEK293 cells; read-out: IC(50), inhibition of taurocholate uptake; cited from earlier work
T2 sequence (P26435 1-362): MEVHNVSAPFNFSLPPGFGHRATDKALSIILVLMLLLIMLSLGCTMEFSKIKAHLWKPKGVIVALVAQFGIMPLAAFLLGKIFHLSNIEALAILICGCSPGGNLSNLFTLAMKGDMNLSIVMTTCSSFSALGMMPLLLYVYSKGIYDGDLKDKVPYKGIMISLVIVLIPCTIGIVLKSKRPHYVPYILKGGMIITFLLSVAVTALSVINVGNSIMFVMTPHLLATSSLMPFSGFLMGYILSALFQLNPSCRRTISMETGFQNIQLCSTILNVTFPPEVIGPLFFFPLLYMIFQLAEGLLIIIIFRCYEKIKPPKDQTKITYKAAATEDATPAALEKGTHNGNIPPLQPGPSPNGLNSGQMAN

[10] = test system: Na(+)-dependent taurocholate uptake; conditions: human suspended hepatocytes; read-out: IC(50), inhibition of Na(+)-dependent taurocholate uptake; cited from earlier work
[11] = clinical trials, cited from earlier work
Rat Stellate Cells = experiment: Stellate cell activation in quadruple-culture Rat Liver-on-Chip (α-SMA staining); format: cell-based; conditions: 1 ng/ml for 48 hours, from Day 7
Experimental: FIGS. 82A-82B provides a micrograph of isolated Rat Stellate Cells that were seeded within a microfluidic Quadruple-culture “Rat Liver-on-Chip”. […] DAPI (blue) stained nuclei.
A quadruple-culture microfluidic Rat Liver-on-Chip at Day 7 has viable Stellate cells.

In the case of `Cc1cc(=O)n(-c2ccccc2)n1C` [Antipyrine], the “amount of remaining compound in the media” value (Human Liver-on-Chip [1]; dynamic conditions (continuous flow), after 25 hours) is reported as “around 90%” and the “amount of remaining compound in the media” value (Human Liver-on-Chip [1]; non-dynamic conditions, 50 μl medium, at 48 hours) is reported as “around 100%”.
In the case of `COc1ccccc1Oc1c(NS(=O)(=O)c2ccc(C(C)(C)C)cc2)nc(-c2ncccn2)nc1OCCO` [Bosentan], the IC50 (human NTCP (SLC10A1)) is listed as 24 µM, the “dose response of albumin secretion” value (Human Liver-on-Chip [2]) is listed as “clear dose response” and the IC50 [3] is listed as 5.4 µM. The “LDH leakage: dose up to which there was a lack of effects” value (DOG Liver-on-Chip [4]) was 100 µM, the “albumin secretion by DOG hepatocytes” value (DOG Liver-on-Chip [5]; 11.1 μM Bosentan) was “relatively constant amounts of albumin” and the “dose response associated with albumin secretion (loss of albumin secretion)” value (DOG Liver-on-Chip [5]; 1.2-100 μM, fluid samples from the upper chamber) was “clear dose response”. For the same compound, the “LDH leakage, hepatocytes and LSEC channel of chip” value (RAT Liver-on-Chip; 7 days of treatment) was “no toxicity effects”, the “LDH toxicity, rat hepatocytes on conventional plates” value (RAT Liver-on-Chip; plate sandwich culture) was “does not show LDH toxicity” and the “hepatotoxicity in treated rats” value [6] was “do not develop hepatotoxicity”. For the same compound, the “hepatocyte degradation, LSEC area or area of hepatocytes alone” value [7] was “not in either the LSEC area or area of hepatocytes alone”, the “visual observation, co-culture area of hepatocytes with LSEC” value [7] was “significant hepatocyte degradation” and the “LDH leakage: concentration at which hepatocytes on plates showed an effect” value (Human Liver-on-Chip [8]) was 100 µM. The “concentration at which LDH effect was observed (the same as for loss of albumin secretion)” value (Human Liver-on-Chip [8]) was “either 3.7 μM or 11.1 μM”, the IC50 [9] was 0.71 µM and the IC50 [10] was 30 µM. For the same compound, the “elevations in serum Alanine aminotransferase (ALT)” value ([11]; patients who developed hepatotoxicity) was “greater than 3 fold” and the “human patients treated who developed hepatotoxicity” value [11] was 8-18%.
With “TGFβ-1: factor used to activate Stellate cells” the “expression of activation marker Alpha-smooth muscle actin (α-SMA)” value (Rat Stellate Cells) was “increased (strong) expression”.

— US20230159899A1, “DEVICES AND METHODS FOR SIMULATING A FUNCTION OF LIVER TISSUE” (EMULATE, INC., priority 2015, published 2023)
